From ChEMBL document CHEMBL1144641, “DNA cleavage promoted by 2,9-dimethyl-4,7-diazadecane-2,9-dithiol (DDD) derivatives” (Bioorg Med Chem Lett, 2007)
Calls of active or inactive are those of the source. The rule behind the calls is not given here.

Columns and labels:
Format in all cases: nucleic-acid assay
Conditions in all cases: Escherichia coli
Nucleic Acid [1] = assay: DNA cleavage activity assessed as conversion of supercoiled pUC19 plasmid to nicked form at pH 7 after 24 hrs
Nucleic Acid [2] = assay: DNA cleavage activity assessed as conversion of supercoiled pUC19 plasmid to nicked form at pH 7 after 12 hrs
Nucleic Acid [3] = assay: DNA cleavage activity assessed as conversion of supercoiled pUC19 plasmid to nicked form at pH 7 after 24 hrs in presence of sodium azide
Nucleic Acid [4] = assay: DNA cleavage activity assessed as conversion of supercoiled pUC19 plasmid to nicked form at pH 7 after 24 hrs in presence of tertiary-butyl alcohol
Nucleic Acid [5] = assay: DNA cleavage activity assessed as conversion of supercoiled pUC19 plasmid to nicked form at pH 7 after 24 hrs in presence of sodium iodide
Nucleic Acid [6] = assay: DNA cleavage activity assessed as conversion of supercoiled pUC19 plasmid to nicked form at 0.286 mM at pH 7 after 24 hrs
Nucleic Acid [7] = assay: DNA cleavage activity assessed as conversion of supercoiled pUC19 plasmid to nicked form at pH 7 after 24 hrs in presence of hydrogen peroxide
Nucleic Acid [8] = assay: DNA cleavage activity assessed as conversion of supercoiled pUC19 plasmid to nicked form at pH 7 after 1 hr

| Activity (Nucleic Acid [1]) [%] | Activity (Nucleic Acid [2]) [%] | Activity (Nucleic Acid [3]) | Activity (Nucleic Acid [4]) | Activity (Nucleic Acid [5]) | Activity (Nucleic Acid [6]) | Activity (Nucleic Acid [7]) | Activity (Nucleic Acid [8]) [%] | Compound |
| --- | --- | --- | --- | --- | --- | --- | --- | --- |
| 48.2 | – | – | – | – | – | – | – | CC1CC(C)CN(CCN(CCNCC(C)(C)S)CC(C)(C)S)C1 (stereo not given) |
| 74.8 | – | – | – | – | – | – | – | CC(C)(S)CNCCN(CCN1CCCCC1)CC(C)(C)S |
| 100 | 40.4 | inactive | inactive | inactive | Active | Active | 30.9 | CC1CCN(CCN(CCNCC(C)(C)S)CC(C)(C)S)CC1 |
